Source: patent US10889564B2, “Tetrahydroindazoles and medical uses thereof” (Genase Therapeutics B.V., priority 2015, dated 2021)

What was measured:
Format in all cases: cell-based
[1] = tested on: p53 synthesis in ARN8 melanoma cells; assay: p53 synthesis, 35S-Met pulse labelling and p53 immunoprecipitation; conditions: 5 h treatment, 35S-Met 30 minutes, FIG. 3
Protocol: Incorporation of 35S-Met in the p53 immunoprecipitate was determined by autoradiography. This experiment was performed in duplicate (Exp. 1 and Exp. 2).

[2] = tested on: MV4-11 wtTP53, leukemia; assay: WST-1 assay; conditions: 72 hours
Protocol: (§1) Adherent cell lines were cultured overnight prior to the addition of the compound of Example 1, whereas non-adherent cell lines were treated immediately after seeding. TP53 status in each cell line is indicated. All cells were grown in 10% FBS. p53 wild type or mutant status (wtTP53 or mtTP53) and tumor cell line origin are indicated. The results obtained are shown below and in FIG. 10.

[3] = tested on: NB4 mtTP53, leukemia; assay: WST-1 assay; conditions: 72 hours
Protocol: as §1

[4] = tested on: HT29 mtTP53, colon cancer; assay: WST-1 assay; conditions: 72 hours
Protocol: as §1

[5] = tested on: K562 mtTP53, leukemia; assay: WST-1 assay; conditions: 72 hours
Protocol: as §1

[6] = tested on: RKO wtTP53, colon cancer; assay: WST-1 assay; conditions: 72 hours
Protocol: as §1

[7] = tested on: U2OS wtTP53, sarcoma; assay: WST-1 assay; conditions: 72 hours
Protocol: as §1

[8] = tested on: A375 wtTP53, melanoma; assay: WST-1 assay; conditions: 72 hours
Protocol: as §1

[9] = tested on: A431 mtTP53, skin cancer; assay: WST-1 assay; conditions: 72 hours
Protocol: as §1

[10] = tested on: L428 mtTP53, lymphoma; assay: WST-1 assay; conditions: 72 hours
Protocol: as §1

[11] = tested on: JVM2 wtTP53, lymphoma; assay: WST-1 assay; conditions: 72 hours
Protocol: as §1

[12] = tested on: HCT116 wtTP53, colon cancer; assay: WST-1 assay; conditions: 72 hours
Protocol: as §1

[13] = tested on: Ramos mtTP53, lymphoma; assay: WST-1 assay; conditions: 72 hours
Protocol: as §1

[14] = tested on: ARN8 melanoma cells; assay: Sulforhodamine B assay of cancer cell growth and/or viability; conditions: ARN8; 2 μM; 72 hours; absence of excess uridine
Protocol: ARN8 melanoma cells are seeded at a density of 500 cells per well of a 96 well plate. Following 24 hours of incubation, cells are treated with increasing concentrations of the compound of Example 8 in the absence or presence of excess uridine (100 micromolar). Cells are incubated for 72 hours after which the growth medium is removed from the cells and replaced by […] of 1× sterile PBS and 50 μL of 40% trichloroacetic acid in dH2O. Samples are incubated at 4° C. for 1 h to fix the cells. The plate is then washed with 3 changes of water with all liquid allowed to drain from the plate. […] of 0.1% sulforhodamine B in 1% acetic acid in H2O is added to each well and incubated for 30 minutes. Excess dye is washed out with three changes of 1% acetic acid in H2O with all liquid allowed to drain from the plate. The remaining dye is solubilized in 100 microliters of 10 mM un-buffered basic Tris per well and absorbance read at 570 nm.

[15] = tested on: ARN8s wtTP53, melanoma; assay: WST-1 assay; conditions: 72 hours
Protocol: TP53 status in each cell line is indicated. All cells were grown in 10% FBS. p53 wild type or mutant status (wtTP53 or mtTP53) and tumor cell line origin are indicated.

[16] = tested on: p21 expression in ARN8 melanoma cells; assay: Levels of p53 and downstream targets (hdm2, pig3, p21) with nutlin-3; conditions: 1 h then 2 μM nutlin-3 for 18 h, FIG. 4
Protocol: Levels of p53 and downstream targets hdm2, pig3 (band indicated by arrow) and p21 were determined. Levels of gapdh were used to monitor protein loading. Pig3 is a known pro-apoptotic protein.

[17] = tested on: uridine uptake in ARN8 cells; assay: Tritiated uridine uptake; conditions: 15 min preincubation, 5,6-3H-Uridine 60 sec, FIG. 7
Protocol: ARN8 cells were incubated with increasing concentrations of nilotinib and tritiated uridine. The amount of tritium label in cells was determined by scintillation counting. 200 000 ARN8 cells/well were seeded on 6-well plates. 24 h post-seeding, the cells were rinsed twice with transport buffer, pH 7.4 (20 mM Tris/HCl, 130 mM NaCl, 3 mM K2HPO4, 1 mM MgCl2, 5 mM Glucose) and then incubated for 15 min at 37° C. with compounds (or vehicle) diluted in transport buffer. 5,6-3H-Uridine (PerkinElmer, #NET367001MC) was added to a final concentration of 4 μCi/mL for 60 sec, and then removed with 5 quick washes with 1 mM ice-cold unlabelled uridine (Sigma, #U3003). Samples (in triplicate) were harvested in 10% SDS (Sigma) and transferred to a flexible 24-well microplate (Perkin Elmer, #1450-402). Optiphase Supermix scintillation buffer (PerkinElmer, #1200-439) was added and the counts per minute measured for 3 min.

O=C(NC1CCCc2c1cnn2-c1ccccc1F)c1ccccn1 (stereo not shown) [Example 1, N-(1-(2-Fluorophenyl)-4,5,6,7-tetrahydro-1H-indazol-4-yl)picolinamide]
p53 synthesis [1]: increases p53 synthesis
metabolically active cells, percentage relative to the vehicle (DMSO) control ([2]; 1.23 μM): 60.26%
metabolically active cells, percentage relative to the vehicle (DMSO) control ([2]; 3.70 μM): 36.85%
metabolically active cells, percentage relative to the vehicle (DMSO) control ([2]; 11.11 μM): 19.73%
metabolically active cells, percentage relative to the vehicle (DMSO) control ([2]; 33.30 μM): 15.79%
metabolically active cells, percentage relative to the vehicle (DMSO) control ([3]; 1.23 μM): 79.47%
metabolically active cells, percentage relative to the vehicle (DMSO) control ([3]; 3.70 μM): 65.73%
metabolically active cells, percentage relative to the vehicle (DMSO) control ([3]; 11.11 μM): 42.77%
metabolically active cells, percentage relative to the vehicle (DMSO) control ([3]; 33.30 μM): 36.19%
metabolically active cells, percentage relative to the vehicle (DMSO) control ([4]; 1.23 μM): 70.23%
metabolically active cells, percentage relative to the vehicle (DMSO) control ([4]; 3.70 μM): 23.19%
metabolically active cells, percentage relative to the vehicle (DMSO) control ([4]; 11.11 μM): 25.66%
metabolically active cells, percentage relative to the vehicle (DMSO) control ([4]; 33.30 μM): 12.11%
metabolically active cells, percentage relative to the vehicle (DMSO) control ([5]; 1.23 μM): 63.91%
metabolically active cells, percentage relative to the vehicle (DMSO) control ([5]; 3.70 μM): 57.69%
metabolically active cells, percentage relative to the vehicle (DMSO) control ([5]; 11.11 μM): 55.28%
metabolically active cells, percentage relative to the vehicle (DMSO) control ([5]; 33.30 μM): 53.35%
metabolically active cells, percentage relative to the vehicle (DMSO) control ([6]; 1.23 μM): 83.37%
metabolically active cells, percentage relative to the vehicle (DMSO) control ([6]; 3.70 μM): 42.62%
metabolically active cells, percentage relative to the vehicle (DMSO) control ([6]; 11.11 μM): 36.36%
metabolically active cells, percentage relative to the vehicle (DMSO) control ([6]; 33.30 μM): 29.16%
metabolically active cells, percentage relative to the vehicle (DMSO) control ([7]; 1.23 μM): 98.88%
metabolically active cells, percentage relative to the vehicle (DMSO) control ([7]; 3.70 μM): 70.03%
metabolically active cells, percentage relative to the vehicle (DMSO) control ([7]; 11.11 μM): 51.63%
metabolically active cells, percentage relative to the vehicle (DMSO) control ([7]; 33.30 μM): 50.16%
metabolically active cells, percentage relative to the vehicle (DMSO) control ([8]; 1.23 μM): 85.95%
metabolically active cells, percentage relative to the vehicle (DMSO) control ([8]; 3.70 μM): 50.62%
metabolically active cells, percentage relative to the vehicle (DMSO) control ([8]; 11.11 μM): 45.86%
metabolically active cells, percentage relative to the vehicle (DMSO) control ([8]; 33.30 μM): 32.67%
metabolically active cells, percentage relative to the vehicle (DMSO) control ([9]; 1.23 μM): 76.99%
metabolically active cells, percentage relative to the vehicle (DMSO) control ([9]; 3.70 μM): 52.31%
metabolically active cells, percentage relative to the vehicle (DMSO) control ([9]; 11.11 μM): 36.84%
metabolically active cells, percentage relative to the vehicle (DMSO) control ([9]; 33.30 μM): 27.93%
metabolically active cells, percentage relative to the vehicle (DMSO) control ([10]; 1.23 μM): 67.78%
metabolically active cells, percentage relative to the vehicle (DMSO) control ([10]; 3.70 μM): 33.84%
metabolically active cells, percentage relative to the vehicle (DMSO) control ([10]; 11.11 μM): 32.76%
metabolically active cells, percentage relative to the vehicle (DMSO) control ([10]; 33.30 μM): 34.80%
metabolically active cells, percentage relative to the vehicle (DMSO) control ([11]; 1.23 μM): 86.30%
metabolically active cells, percentage relative to the vehicle (DMSO) control ([11]; 3.70 μM): 75.36%
metabolically active cells, percentage relative to the vehicle (DMSO) control ([11]; 11.11 μM): 44.68%
metabolically active cells, percentage relative to the vehicle (DMSO) control ([11]; 33.30 μM): 38.31%
metabolically active cells, percentage relative to the vehicle (DMSO) control ([12]; 1.23 μM): 75.69%
metabolically active cells, percentage relative to the vehicle (DMSO) control ([12]; 3.70 μM): 50.13%
metabolically active cells, percentage relative to the vehicle (DMSO) control ([12]; 11.11 μM): 28.40%
metabolically active cells, percentage relative to the vehicle (DMSO) control ([12]; 33.30 μM): 14.51%
metabolically active cells, percentage relative to the vehicle (DMSO) control ([13]; 1.23 μM): 87.94%
metabolically active cells, percentage relative to the vehicle (DMSO) control ([13]; 3.70 μM): 54.16%
metabolically active cells, percentage relative to the vehicle (DMSO) control ([13]; 11.11 μM): 42.35%
metabolically active cells, percentage relative to the vehicle (DMSO) control ([13]; 33.30 μM): 40.94%
viability at 2 µM [14]: 53%
metabolically active cells, percentage relative to the vehicle (DMSO) control ([15]; 1.23 μM): 68.69%
metabolically active cells, percentage relative to the vehicle (DMSO) control ([15]; 3.70 μM): 40.86%
metabolically active cells, percentage relative to the vehicle (DMSO) control ([15]; 11.11 μM): 35.13%
nutlin-3 induced p21 expression [16]: Loss of nutlin-3 induced p21 expression

Cc1cn(-c2cc(NC(=O)c3ccc(C)c(Nc4nccc(-c5cccnc5)n4)c3)cc(C(F)(F)F)c2)cn1 [nilotinib]
uridine uptake [17]: blocks uridine uptake
